Assay results from ChEMBL document CHEMBL1154916, “Insight into binding of phosphodiesterase-9A selective inhibitors by crystal structures and mutagenesis” (J Med Chem, 2010).
pIC50: −log10 of the molar value.

Experiments:
[1] = Inhibition of PDE9
[2] = target: High affinity cGMP-specific 3',5'-cyclic phosphodiesterase 9A (Homo sapiens, UniProt O76083); test: Inhibition of human PDE9A expressed in Escherichia coli BL21 by liquid scintillation counting
High affinity cGMP-specific 3',5'-cyclic phosphodiesterase 9A, sequence (O76083 whole entry): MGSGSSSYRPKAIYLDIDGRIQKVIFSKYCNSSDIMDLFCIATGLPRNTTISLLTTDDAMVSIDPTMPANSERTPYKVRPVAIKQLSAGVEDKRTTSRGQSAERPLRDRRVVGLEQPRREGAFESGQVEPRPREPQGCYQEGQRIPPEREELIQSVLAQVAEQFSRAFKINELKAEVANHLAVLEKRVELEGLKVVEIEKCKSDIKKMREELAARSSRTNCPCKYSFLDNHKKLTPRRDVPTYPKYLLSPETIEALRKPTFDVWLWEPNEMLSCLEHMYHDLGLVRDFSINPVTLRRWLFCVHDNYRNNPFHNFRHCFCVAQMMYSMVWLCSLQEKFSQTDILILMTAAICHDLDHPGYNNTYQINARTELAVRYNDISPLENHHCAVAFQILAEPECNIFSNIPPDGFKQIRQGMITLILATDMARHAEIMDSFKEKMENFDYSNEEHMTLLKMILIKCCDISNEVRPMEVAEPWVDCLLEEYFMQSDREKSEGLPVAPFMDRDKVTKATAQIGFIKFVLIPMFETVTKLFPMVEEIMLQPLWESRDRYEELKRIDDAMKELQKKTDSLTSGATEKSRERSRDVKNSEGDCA

Row | pIC50 [1] | pIC50 [2] | Compound
1 | 7.26 |  | C[C@H](Cc1nc2c(cnn2-c2ccccc2Cl)c(=O)[nH]1)C(F)(F)F
2 |  | < 3.70 | CC(C)Cn1c(=O)n(C)c(=O)c2[nH]cnc21 [ISOBUTYLMETHYLXANTHINE]
